Laboratory results from patent publication US20210349099A1, “CANCER BIOMARKERS AND METHODS OF USE THEREOF” (X4 Pharmaceuticals, Inc., priority 2017, published 2021).

Tests used:
Solubility of X4P-001 = format: physicochemical
melanoma tumor interface = test: Multiplex IHC and HALO count of CD8+ cells at the tumor interface; format: in vivo, human
Procedure: CD8-labeled cells within […] of the inside or outside of the tumor boundary with normal tissue were counted. The number of CD8^+ cells/mm^2 was plotted against distance from the boundary in […] bands.

melanoma biopsy samples = test: VISTA panel staining of melanoma biopsies (CD163, CD206, VISTA, COX-2, CD3, B7H3); format: in vivo, human
Source text: Biopsy samples were obtained at baseline (top row) and at the end of […]-001 monotherapy (bottom row). […] The right column contains higher magnification views of the boxed regions in the center panel.

[1] = tested on: B16-OVA tumor microenvironment; test: Flow cytometry of immune cell populations in B16-OVA tumor tissue; format: in vivo, C57BL/6 mice
Procedure: Single cell suspensions were prepared from tumor tissues by treating with collagenase and analyzing for various immune cell populations using flow cytometry. Cell surface markers included CD3, CD8, Perforin, CD15CD11b (MDSC), and FoxP3 (Treg). […] The enhancement was even greater for combination therapy with anti-PD-1.

[2] = tested on: solid tumors, e.g. advanced or metastatic melanoma; test: Biomarker findings in tumors; format: in vivo
Source text: Granzyme B is associated with cell death/apoptosis mediated by cytotoxic T lymphocytes (CTLs), natural killer (NK) cells, and cytotoxic T cells. Accordingly, in some embodiments, the biomarker is an observed increase in granzyme B expression in a tumor relative to a control. In some embodiments, the cancer is a solid tumor such as advanced or metastatic melanoma. […] Accordingly, in some embodiments, the biomarker is an observed increase in CD8^+ T cells and/or CD4^+ T cells in a tumor relative to a control. In other embodiments, the biomarker is an increase in the ratio of CD8^+ T cells to Treg cells. In some embodiments, the increase is observed by immunohistochemistry or expression levels of one or both of CD8A and CD8B. In some embodiments, an increase in CD8^+ T cells and/or CD4^+ T cells or CD8^+ T cells/Treg ratio in a tumor sample from a patient who has undergone treatment with […]-001 or X4-136 correlates with an increased likelihood that the patient will benefit from continued treatment with […]-001 alone or in combination with an immunotherapeutic agent, e.g., a checkpoint inhibitor such as a PD-1 antagonist. In some embodiments, the PD-1 antagonist is selected from nivolumab and pembrolizumab, or a biosimilar or variant of such PD-1 antagonists. In some embodiments, the checkpoint inhibitor is nivolumab. In some embodiments, the checkpoint inhibitor is a nivolumab biosimilar or variant. In some embodiments, the checkpoint inhibitor is pembrolizumab. In some embodiments, the checkpoint inhibitor is a pembrolizumab biosimilar or variant. In some embodiments, the tumor is a solid tumor such as advanced or metastatic melanoma. […] In some embodiments, the biomarker is IDO1. In some embodiments, the biomarker is CXCL10. In some embodiments, the biomarker is CXCL9. In some embodiments, the biomarker is HLA-DRA. In some embodiments, the biomarker is STAT1. In some embodiments, the biomarker is IFN-γ. In some embodiments, the biomarker is two or more of IDOL, CXCL10, CXCL9, HLA-DRA, STAT1 and IFN-γ. In some embodiments, the biomarker is three or more of IDO1, CXCL10, CXCL9, HLA-DRA, STAT1 and IFN-γ. In some embodiments, the biomarker is four or more of IDOL, CXCL10, CXCL9, HLA-DRA, STAT1 and IFN-γ. In some embodiments, the biomarker is five or more of IDOL, CXCL10, CXCL9, HLA-DRA, STAT1 and IFN-γ. In some embodiments, the biomarker is all of IDOL, CXCL10, CXCL9, HLA-DRA, STAT1 and IFN-γ. In some embodiments, the biomarker is an increase of all of IDO1, CXCL10, CXCL9, HLA-DRA, STAT1 and IFN-γ. In some embodiments, an increase in one, two, three, four, five, or all of IDOL, CXCL10, CXCL9, HLA-DRA, STAT1 and IFN-γ in a tumor sample from a patient who has undergone treatment with […]-001 correlates with an increased likelihood that the patient will benefit from continued treatment with […]-001 alone or in combination with an immunotherapeutic agent, e.g., a checkpoint inhibitor such as a PD-1 antagonist. In some embodiments, the PD-1 antagonist is selected from nivolumab and pembrolizumab, or a biosimilar or variant of such PD-1 antagonists. In some embodiments, the checkpoint inhibitor is nivolumab. In some embodiments, the checkpoint inhibitor is a nivolumab biosimilar or variant. In some embodiments, the checkpoint inhibitor is pembrolizumab. In some embodiments, the checkpoint inhibitor is a pembrolizumab biosimilar or variant. In some embodiments, the tumor is a solid tumor such as advanced or metastatic melanoma. In some embodiments, the biomarker or the use thereof is one of those described in Ayers et al., Journal of Clinical Investigation 2017, 127(8), 2930-2940 [29] (“Ayers et al. (2017)”) or WO 2016/094377, each of which is hereby incorporated by reference. […] Accordingly, in some embodiments, the biomarker is maintenance or decrease of Treg levels in a tumor relative to a control. In some embodiments, the biomarker is the level of FoxP3 expression, which serves as a means to determine the Treg level. […]

[3] = Phase 1 and 2a trials; cited from earlier work
[4] = tested on: melanoma, renal cell carcinoma, and ovarian cancer; settings: murine models; cited from earlier work
[5] = end of X4P-001 monotherapy vs baseline
[6] = solid tumors, e.g. advanced or metastatic melanoma

In the case of `NCCCCN(Cc1nc2ccccc2[nH]1)[C@H]1CCCc2cccnc21` [X4P-001], the solubility (Solubility of X4P-001; aqueous buffer, pH range 3.0 to 8.0 (freely soluble)) is reported as > 100 mg/mL, the solubility in water (Solubility of X4P-001; water) is reported as “only slightly soluble” and the “CD8 Avg. Density” value (melanoma tumor interface; Week 4, Day 1 380.0449) is reported as 1550.5403 cells/mm^2. The “CD8 Within Interface Area” value (melanoma tumor interface; Week 4, Day 1 5233) was 7557, the “CD8 Count” value (melanoma tumor interface; Week 4, Day 1 8924) was 25894 and the “total density of CD8+ cells within the boundary area compared with baseline” value (melanoma tumor interface; after 3 weeks of monotherapy, within 100 μM of tumor boundary) was “increased four-fold”. For the same compound, the “COX-2/mm^2” value (melanoma biopsy samples; Week 4, ROI Non-Tumor, Day 1 2.07) was 1.22 /mm^2, the “CD206/mm^2” value (melanoma biopsy samples; Week 4, ROI Non-Tumor, Day 1 252.20) was 199.30 /mm^2 and the “CD3/mm^2” value (melanoma biopsy samples; Week 4, ROI Non-Tumor, Day 1 400.31) was 494.97 /mm^2. For the same compound, the “VISTA/mm^2” value (melanoma biopsy samples; Week 4, ROI Non-Tumor, Day 1 410.11) was 144.72 /mm^2, the “CD163/mm^2” value (melanoma biopsy samples; Week 4, ROI Non-Tumor, Day 1 514.86) was 467.25 /mm^2 and the “B7H3/mm^2” value (melanoma biopsy samples; Week 4, ROI Non-Tumor, Day 1 615.63) was 980.49 /mm^2. For the same compound, the “Cells/mm^2” value (melanoma biopsy samples; Week 4, ROI Non-Tumor, Day 1 2057.63) was 2217.73 /mm^2, the “COX-2/mm^2” value (melanoma biopsy samples; Week 4, ROI Tumor, Day 1 3.40) was 2.98 /mm^2 and the “CD3/mm^2” value (melanoma biopsy samples; Week 4, ROI Tumor, Day 1 239.91) was 1050.68 /mm^2. For the same compound, the “CD206/mm^2” value (melanoma biopsy samples; Week 4, ROI Tumor, Day 1 264.79) was 161.25 /mm^2, the “CD163/mm^2” value (melanoma biopsy samples; Week 4, ROI Tumor, Day 1 426.51) was 661.21 /mm^2 and the “VISTA/mm^2” value (melanoma biopsy samples; Week 4, ROI Tumor, Day 1 2640.08) was 852.86 /mm^2. For the same compound, the “B7H3/mm^2” value (melanoma biopsy samples; Week 4, ROI Tumor, Day 1 4826.36) was 3952.27 /mm^2, the “Cells/mm^2” value (melanoma biopsy samples; Week 4, ROI Tumor, Day 1 5758.23) was 5297.64 /mm^2 and the “COX-2/mm^2” value (melanoma biopsy samples; Week 4, ROI Whole Tissue, Day 1 2.87) was 1.97 /mm^2. The “CD206/mm^2” value (melanoma biopsy samples; Week 4, ROI Whole Tissue, Day 1 259.38) was 182.26 /mm^2, the “CD3/mm^2” value (melanoma biopsy samples; Week 4, ROI Whole Tissue, Day 1 308.53) was 738.82 /mm^2 and the “CD163/mm^2” value (melanoma biopsy samples; Week 4, ROI Whole Tissue, Day 1 464.86) was 552.27 /mm^2. For the same compound, the “VISTA/mm^2” value (melanoma biopsy samples; Week 4, ROI Whole Tissue, Day 1 1673.17) was 457.53 /mm^2, the “B7H3/mm^2” value (melanoma biopsy samples; Week 4, ROI Whole Tissue, Day 1 2998.14) was 2288.84 /mm^2 and the “Cells/mm^2” value (melanoma biopsy samples; Week 4, ROI Whole Tissue, Day 1 4149.31) was 3572.93 /mm^2. The “expression of VISTA” value (melanoma biopsy samples; [5]) was “decreased expression”, the “numbers of CD3+ cells within tumor borders” value (melanoma biopsy samples; [5]) was “increased numbers” and the “suppressor cell counts (Tregs and MDSC)” value [1] was “substantially decreased”. The “CTL signature gene expression in tumor samples or the tumor microenvironment” value ([2]; in vivo) was “increase”, the “IFN-γ gene signature (panel of IFN-γ related genes)” value ([2]; in vivo) was “increase” and the “PD-L1 expression in tumor samples and the tumor microenvironment” value ([2]; in vivo) was “increase”. The “granzyme B (GZMB) expression in cancers” value [2, 6] was “increases”, the “levels of Treg cells” value [2, 6] was “without significantly increasing” and the “levels of macrophages in the tumor” value [2, 6] was “without significantly modulating”. For the same compound, the “observed numbers of CD8+ T cells and/or CD4+ T cells in cancers” value [2, 6] was “increases”, the “levels of the VISTA panel of biomarkers” value ([2]; tumor samples and the tumor microenvironment) was “modulate” and the “pharmacodynamic activity: circulating white blood cells (WBCs)” value [3] was “dose- and concentration-related changes”. For the same compound, the “volume of distribution (VL)” value [3] was “high” and the anti-tumor activity [4] was “significant anti-tumor activity, including decreased metastasis and increased overall survival”.
